Source: patent US20260062443A1 (ALEXION PHARMACEUTICALS, INC., priority 2022, published 2026)

Biological target: T1, Human complement C1s enzyme (Homo sapiens, UniProt P09871)
T1 sequence (P09871 438-688 limits assumed): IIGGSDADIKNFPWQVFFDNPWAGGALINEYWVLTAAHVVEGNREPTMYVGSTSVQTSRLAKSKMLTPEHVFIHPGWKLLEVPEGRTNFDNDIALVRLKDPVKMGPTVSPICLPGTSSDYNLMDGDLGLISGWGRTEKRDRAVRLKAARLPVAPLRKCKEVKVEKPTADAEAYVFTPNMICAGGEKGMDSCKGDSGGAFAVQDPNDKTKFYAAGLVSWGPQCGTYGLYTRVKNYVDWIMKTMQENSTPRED
T1 sequence (P09871 16-437 partner limits assumed): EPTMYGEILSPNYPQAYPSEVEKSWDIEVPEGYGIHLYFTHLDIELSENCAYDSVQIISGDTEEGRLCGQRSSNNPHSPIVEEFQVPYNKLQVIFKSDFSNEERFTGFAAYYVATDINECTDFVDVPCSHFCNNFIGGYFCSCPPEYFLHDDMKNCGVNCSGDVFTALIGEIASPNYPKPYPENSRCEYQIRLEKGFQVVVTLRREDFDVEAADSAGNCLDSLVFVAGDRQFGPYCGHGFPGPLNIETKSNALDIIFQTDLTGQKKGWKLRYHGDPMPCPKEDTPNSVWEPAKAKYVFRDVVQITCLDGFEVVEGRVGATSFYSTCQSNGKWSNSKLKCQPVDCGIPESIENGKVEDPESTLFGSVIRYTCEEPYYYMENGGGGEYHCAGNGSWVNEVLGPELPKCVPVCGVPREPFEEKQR
Assay: Human C1s enzyme assay
Format: biochemical
Conditions: human complement C1s enzyme 1.16 nM, substrate Z-L-Lys-SBzl 100 μM, 5 min preincubation; read-out: IC50 (Stars), C1s Inhibiting Activity
In short: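 IC50 from nonlinear regression of reaction rates versus compound concentration, with rates taken from A405 recorded at 30 s intervals over 30 min after adding 100 μM Z-L-Lys-SBzl plus 100 μM DTNB. Enzyme was human C1s purified from serum, 1.16 nM, given 5 min compound preincubation at room temperature, pH 7.5 Tris/1 M NaCl.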

Row | IC50 [nM] | SMILES
1 | < 100 | Cc1ccc(Oc2cccc(C(=O)NCC(=O)N3C[C@H](OC(F)F)C[C@H]3C(=O)NCc3cc4c(s3)CCNC4)c2)c(F)c1 [Compound 338, (2S,4R)-4-(difluoromethoxy)-1-((3-(2-fluoro-4-methylphenoxy)benzoyl)glycyl)-N-((4,5,6,7-tetrahydrothieno[3,2-c]pyridin-2-yl)methyl) pyrrolidine-2-carboxamide]
2 | < 100 | Cc1ccc(Oc2cccc(C(=O)NCC(=O)N3C[C@H](OC(F)F)C[C@H]3C(=O)NCc3cc4c(s3)CNCC4)c2)c(F)c1 [Compound 339, (2S,4R)-4-(difluoromethoxy)-1-((3-(2-fluoro-4-methylphenoxy)benzoyl)glycyl)-N-((4,5,6,7-tetrahydrothieno[2,3-c]pyridin-2-yl)methyl) pyrrolidine-2-carboxamide]
3 | > 1000 | CN1CCc2cc(CNC(=O)[C@@H]3C[C@@H](OC(F)F)CN3C(=O)CNC(=O)c3ccc4c(c3)Oc3ccccc3S4)sc2C1 [Compound 346, (2S,4R)-4-(difluoromethoxy)-N-((6-methyl-4,5,6,7-tetrahydrothieno[2,3-c]pyridin-2-yl)methyl)-1-((phenoxathiine-3-carbonyl)glycyl) pyrrolidine-2-carboxamide]
4 | > 1000 | CN1CCc2sc(CNC(=O)[C@@H]3C[C@@H](OC(F)F)CN3C(=O)CNC(=O)c3ccc4c(c3)Oc3ccccc3S4)cc2C1 [Compound 347, (2S,4R)-4-(difluoromethoxy)-N-((5-methyl-4,5,6,7-tetrahydrothieno[3,2-c]pyridin-2-yl)methyl)-1-((phenoxathiine-3-carbonyl)glycyl) pyrrolidine-2-carboxamide]
5 | < 100 | O=C(NCC(=O)N1C[C@H](OC(F)F)C[C@H]1C(=O)NCc1cc2cnccc2[nH]1)c1cc2c(cc1F)Sc1ccccc1O2 [Compound 355, (2S,4R)-N-((1H-pyrrolo[3,2-c]pyridin-2-yl)methyl)-4-(difluoromethoxy)-1-((2-fluorophenoxathiine-3-carbonyl)glycyl)pyrrolidine-2-carboxamide]
6 | < 100 | O=C(NCC(=O)N1C[C@H](OC(F)F)C[C@H]1C(=O)NCc1cc2cnccc2[nH]1)c1ccc2c(c1)OCCS2 [Compound 356, (2S,4R)-N-((1H-pyrrolo[3,2-c]pyridin-2-yl)methyl)-4-(difluoromethoxy)-1-((2,3-dihydrobenzo[b][1,4]oxathiine-7-carbonyl)glycyl)pyrrolidine-2-carboxamide]
7 | 100 to 1000 | CC(c1cccc(F)c1)c1ccc(C(=O)NCC(=O)N2CC3(C[C@H]2C(=O)NCc2cc4cnccc4[nH]2)OCCO3)s1 (stereo partly drawn) [Compound 357, (8S)-N-((1H-pyrrolo[3,2-c]pyridin-2-yl)methyl)-7-((5-(1-(3-fluorophenyl)ethyl)thiophene-2-carbonyl)glycyl)-1,4-dioxa-7-azaspiro[4.4]nonane-8-carboxamide]
8 | < 100 | Cc1ccc(Oc2cccc(C(=O)NCC(=O)N3C[C@H](OC(F)F)C[C@H]3C(=O)NCc3cc4cnccc4[nH]3)c2)s1 [Compound 366, (2S,4R)-N-((1H-pyrrolo[3,2-c]pyridin-2-yl)methyl)-4-(difluoromethoxy)-1-((3-((5-methylthiophen-2-yl)oxy)benzoyl)glycyl)pyrrolidine-2-carboxamide]
9 | < 100 | COC[C@H]1C[C@@H](C(=O)NCc2cc3cnccc3[nH]2)N(C(=O)CNC(=O)c2cccc(Oc3ccc(C)cc3F)c2)C1 [Compound 367, (2S,4S)-N-((1H-pyrrolo[3,2-c]pyridin-2-yl)methyl)-1-((3-(2-fluoro-4-methylphenoxy)benzoyl)glycyl)-4-(methoxymethyl)pyrrolidine-2-carboxamide]
10 | < 100 | CCc1ccc(Oc2cccc(C(=O)NCC(=O)N3C[C@H](OC(F)F)C[C@H]3C(=O)NCc3cc4cnccc4[nH]3)c2)s1 [Compound 368, (2S,4R)-4-(difluoromethoxy)-1-[2-[[3-[(5-ethyl-2-thienyl)oxy]benzoyl]amino]acetyl]-N-(1H-pyrrolo[3,2-c]pyridin-2-ylmethyl)pyrrolidine-2-carboxamide]
11 | < 100 | O=C(NCC(=O)N1C[C@H](OC(F)F)C[C@H]1C(=O)NCc1cc2cnccc2[nH]1)c1ccc2oc3cccc(F)c3c2c1 [Compound 369, (2S,4R)-N-((1H-pyrrolo[3,2-c]pyridin-2-yl)methyl)-4-(difluoromethoxy)-1-((9-fluorodibenzo[b,d]furan-2-carbonyl)glycyl)pyrrolidine-2-carboxamide]
12 | < 100 | CCc1ccc(Oc2cc(F)cc(C(=O)NCC(=O)N3C[C@H](OC(F)F)C[C@H]3C(=O)NCc3cc4cnccc4[nH]3)c2)cc1 [Compound 370, (2S,4R)-N-((1H-pyrrolo[3,2-c]pyridin-2-yl)methyl)-4-(difluoromethoxy)-1-((3-(4-ethylphenoxy)-5-fluorobenzoyl)glycyl)pyrrolidine-2-carboxamide]
13 | < 100 | CCc1ccc(Oc2cc(F)cc(C(=O)NCC(=O)N3[C@H]4C[C@@]4(C)C[C@H]3C(=O)NCc3cc4cnccc4[nH]3)c2)cc1 [Compound 371, (1S,3S,5S)-N-((1H-pyrrolo[3,2-c]pyridin-2-yl)methyl)-2-((3-(4-ethylphenoxy)-5-fluorobenzoyl)glycyl)-5-methyl-2-azabicyclo[3.1.0]hexane-3-carboxamide]
14 | < 100 | CCc1ccc(Oc2cc(F)cc(C(=O)NCC(=O)N3C[C@@](F)(Cn4ccnc4)C[C@H]3C(=O)NCc3cc4cnccc4[nH]3)c2)cc1 [Compound 372, (2S,4S)-4-((1H-imidazol-1-yl)methyl)-N-((1H-pyrrolo[3,2-c]pyridin-2-yl)methyl)-1-((3-(4-ethylphenoxy)-5-fluorobenzoyl)glycyl)-4-fluoropyrrolidine-2-carboxamide]
15 | > 1000 | C[C@@]12C[C@@H]1N(C(=O)CNC(=O)c1ccc(Oc3ccccc3)cc1)[C@H](C(=O)NCc1ccc(Cl)cc1)C2 [Compound 373, (1S,3S,5S)-N-(4-chlorobenzyl)-5-methyl-2-((4-phenoxybenzoyl)glycyl)-2-azabicyclo[3.1.0]hexane-3-carboxamide]
16 | > 1000 | Cc1ccc(Oc2cccc(C(=O)NCC(=O)N3C[C@H](OC(F)F)C[C@H]3C(=O)NCc3c(C)cc(N)nc3C)c2F)cc1 [Compound 374, (2S,4R)-N-((6-amino-2,4-dimethylpyridin-3-yl)methyl)-4-(difluoromethoxy)-1-((2-fluoro-3-(p-tolyloxy)benzoyl)glycyl) pyrrolidine-2-carboxamide]
17 | < 100 | Cc1ccc(Oc2cccc(C(=O)NCC(=O)N3N=CC[C@H]3C(=O)NCc3cc4cnccc4[nH]3)c2F)cc1 [Compound 375, (S)-N-((1H-pyrrolo[3,2-c]pyridin-2-yl)methyl)-1-((2-fluoro-3-(p-tolyloxy)benzoyl)glycyl)-4,5-dihydro-1H-pyrazole-5-carboxamide]
18 | > 1000 | Cc1ccc(Oc2cccc(C(=O)NCC(=O)N3C[C@H](OC(F)F)C[C@H]3C(=O)Nc3cc4cnccc4s3)c2F)cc1 [Compound 376, (2S,4R)-4-(difluoromethoxy)-1-((2-fluoro-3-(p-tolyloxy)benzoyl)glycyl)-N-(thieno[3,2-c]pyridin-2-yl)pyrrolidine-2-carboxamide]
19 | < 100 | O=C(NCC(=O)N1C[C@H](OC(F)F)C[C@H]1C(=O)NCc1cc2cnccc2[nH]1)c1cc(-c2ccc(Cl)cc2)cs1 [Compound 377, (2S,4R)-N-((1H-pyrrolo[3,2-c]pyridin-2-yl)methyl)-1-((4-(4-chlorophenyl)thiophene-2-carbonyl)glycyl)-4-(difluoromethoxy)pyrrolidine-2-carboxamide]
20 | < 100 | O=C(NCC(=O)N1C[C@H](OC(F)F)C[C@H]1C(=O)NCc1cc2cnccc2[nH]1)c1cccc(N2Cc3ccccc3C2)c1 [Compound 378, (2S,4R)-N-((1H-pyrrolo[3,2-c]pyridin-2-yl)methyl)-4-(difluoromethoxy)-1-((3-(isoindolin-2-yl)benzoyl)glycyl)pyrrolidine-2-carboxamide]
21 | < 100 | O=C(NCC(=O)N1C[C@H](OC(F)F)C[C@H]1C(=O)NCc1cc2cnccc2[nH]1)c1cc(-c2ccccc2)cs1 [Compound 379, (2S,4R)-N-((1H-pyrrolo[3,2-c]pyridin-2-yl)methyl)-4-(difluoromethoxy)-1-((4-phenylthiophene-2-carbonyl)glycyl)pyrrolidine-2-carboxamide]
22 | > 1000 | O=C(NCC(=O)N1C[C@H](OC(F)F)C[C@H]1C(=O)NCc1cc2cnccc2[nH]1)c1cncc(N2CCOCC2)n1 [Compound 380, N-(2-((2S,4R)-2-(((1H-pyrrolo[3,2-c]pyridin-2-yl)methyl)carbamoyl)-4-(difluoromethoxy)pyrrolidin-1-yl)-2-oxoethyl)-6-morpholinopyrazine-2-carboxamide]
23 | < 100 | O=C(NCC(=O)N1C[C@H](OC(F)F)C[C@H]1C(=O)NCc1cc2cnccc2[nH]1)c1ccc(-c2ccccn2)s1 [Compound 381, (2S,4R)-4-(difluoromethoxy)-1-[2-[[5-(2-pyridyl)thiophene-2-carbonyl]amino]acetyl]-N-(1H-pyrrolo[3,2-c]pyridin-2-ylmethyl)pyrrolidine-2-carboxamide]
